The values below come from ChEMBL document CHEMBL1201862, “PubChem BioAssay data set” (2004).

The structures appear in SMILES notation.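 A five-concentration, 48-hour dose response in 96-well plates underlies each endpoint, interpolated linearly between surrounding concentrations. GI50 = concentration required for 50% inhibition of growth.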 Activity calls are given as the source filed them. Rule as the data show it: active = GI50 up to about 1.1 µM and inactive = higher. Bounds are passed on as bounds.

Test systems include 786-0; A549; ACHN; DU-145; HCT-116; HCT-15; HOP-92; HT-29; K562; MDA-MB-231; NCI-H522; NCI/ADR-RES; OVCAR-4; PC-3; SF-268; SF-295; SF-539; SK-OV-3; SR; UACC-257.
Common to all, as to experiment: inhibition of tumour cell growth, NCI panel, 48 h

For the compound `CCOC(=O)C(NS(=O)(=O)c1ccccc1)(C(F)(F)F)P(=O)(OCC(C)C)OCC(C)C` (stereo not given), the GI50 in the assay on 786-0 was > 100 µM (inactive); in the assay on A549 it was > 100 µM (inactive); with ACHN, > 100 µM (inactive); with DU-145, > 100 µM (inactive); in the assay with HCT-116, > 100 µM (inactive); with HCT-15 it was more than 100 µM. In addition, the GI50 in the assay on HOP-92, in the assay on HT-29, in the assay with K562, in the assay on MDA-MB-231, in the assay with NCI-H522 and in the assay with NCI/ADR-RES was > 100 µM (inactive) in each case. For the same compound, the GI50 in the assay on OVCAR-4, in the assay on PC-3, in the assay with SF-268, in the assay with SF-295, in the assay on SF-539 and with SK-OV-3 was > 100 µM (inactive) throughout. Also, the GI50 in the assay with SR and with UACC-257 was > 100 µM (inactive) in each case.
Consider `C/C(=N\NC(=[Se])N(C)C)c1ccccn1`, for which the GI50 with 786-0 is 0.0559 µM (active); in the assay on A549, 0.02 µM (active); with ACHN it was < 0.01 µM (active); in the assay with DU-145, 1.41 µM (inactive); in the assay on HCT-116, < 0.01 µM (active); in the assay on HCT-15, 0.0352 µM. For the same compound, the GI50 in the assay on HOP-92 was 1.09 µM (active); with HT-29, < 0.01 µM (active); in the assay with K562 it was < 0.01 µM (active); in the assay on MDA-MB-231, 0.0131 µM (active); in the assay on NCI-H522, 0.0497 µM (active); with NCI/ADR-RES, < 0.01 µM (active). The GI50 is 0.103 µM (active) in the assay on OVCAR-4; < 0.01 µM (active) with PC-3; 0.216 µM (active) in the assay with SF-268; < 0.01 µM (active) with SF-295; 0.577 µM (active) in the assay on SF-539; 0.0216 µM (active) with SK-OV-3. The GI50 in the assay on SR and with UACC-257 was < 0.01 µM (active) in each case.
With `CC(=O)NC(CS/N=N/c1[nH]cnc1C(N)=O)C(=O)O` (stereo not given), the GI50 in the assay on 786-0 is 13 µM (inactive); in the assay with A549, > 100 µM (inactive); in the assay on ACHN, 6.27 µM (inactive); in the assay with DU-145 it was 1.78 µM (inactive); in the assay on HCT-116, 5.5 µM (inactive); with HCT-15, 19.5 µM. Besides, the GI50 with HOP-92 was 6.93 µM (inactive); with HT-29, > 46.9 µM (inactive); in the assay on K562, 0.791 µM (active); in the assay on MDA-MB-231, 2.2 µM (inactive); in the assay on NCI-H522, 14.9 µM (inactive); in the assay on NCI/ADR-RES, 3.04 µM (inactive). Moreover, the GI50 in the assay with OVCAR-4 was 3.31 µM (inactive); in the assay on PC-3, 6.38 µM (inactive); with SF-268, 4.29 µM (inactive); with SF-295, 4.16 µM (inactive); in the assay with SF-539, 7.87 µM (inactive); with SK-OV-3, 2.15 µM (inactive). Also, the GI50 with SR was < 0.01 µM (active); in the assay on UACC-257, 39.3 µM (inactive).
`Cc1cc(C)nc(NS(=O)(=O)c2ccc(NNc3c4ccccc4nc4c(C(=O)Nc5ccc(S(N)(=O)=O)cc5)cccc34)cc2)n1`: the GI50 with 786-0 was 66.5 µM (inactive); in the assay on A549, > 100 µM (inactive); with ACHN, 28.1 µM (inactive); in the assay on DU-145, 42.6 µM (inactive); in the assay with HCT-116, 28.2 µM (inactive); with HCT-15 it was more than 100 µM. Moreover, the GI50 is 17.4 µM (inactive) in the assay on HOP-92; 39.7 µM (inactive) in the assay on HT-29; 27.9 µM (inactive) with K562; 13.3 µM (inactive) in the assay with MDA-MB-231; 19.7 µM (inactive) in the assay with NCI-H522; > 100 µM (inactive) in the assay with NCI/ADR-RES. For the same compound, the GI50 in the assay on OVCAR-4 was 49.5 µM (inactive); in the assay on PC-3, 18.6 µM (inactive); in the assay on SF-268, 29.9 µM (inactive); in the assay on SF-295, 54 µM (inactive); with SF-539, 40.7 µM (inactive); in the assay on SK-OV-3 it was 47.1 µM (inactive). In addition, the GI50 in the assay with SR is 12.8 µM (inactive); with UACC-257 it was > 100 µM (inactive).
For `COc1cc(S(=O)(=O)Nc2nc(-c3ccc(N4C(=O)C(CC(=O)O)SC4c4ccccc4O)cc3)cs2)ccc1Cl` (stereo not given), the GI50 with 786-0 was > 100 µM (inactive); in the assay on A549 it was 32 µM (inactive); in the assay on ACHN, > 100 µM (inactive); with DU-145 it was > 100 µM (inactive); in the assay on HCT-116 it was 46.3 µM (inactive); in the assay on HCT-15 it was 47.5 µM. The GI50 in the assay on HOP-92 is 31 µM (inactive); in the assay on HT-29, 90.8 µM (inactive); in the assay on K562, 38.2 µM (inactive); with MDA-MB-231 it was > 100 µM (inactive); in the assay on NCI-H522 it was 85.3 µM (inactive); in the assay with NCI/ADR-RES, > 100 µM (inactive). In addition, the GI50 in the assay on OVCAR-4 is 34.3 µM (inactive); with PC-3, 59.4 µM (inactive); in the assay with SF-268 it was > 100 µM (inactive); with SF-295, 51.2 µM (inactive); in the assay with SF-539, > 100 µM (inactive); in the assay with SK-OV-3, 62.4 µM (inactive). Besides, the results for the GI50 in the assay with SR and in the assay with UACC-257 were 99.8 µM (inactive) and 88.7 µM (inactive), respectively.
`CC(=O)Nc1nnc(S(=O)(=O)NC(=S)Nc2ccc(Cl)cc2)s1`: the GI50 in the assay with 786-0 is > 100 µM (inactive); in the assay on A549, > 100 µM (inactive); in the assay with ACHN, > 100 µM (inactive); in the assay with DU-145, > 100 µM (inactive); in the assay with HCT-116, > 100 µM (inactive); with HCT-15, more than 100 µM. For the same compound, the GI50 with HOP-92, in the assay on HT-29, with K562, in the assay with MDA-MB-231, in the assay on NCI-H522 and in the assay on NCI/ADR-RES was > 100 µM (inactive) in each case. In addition, the GI50 in the assay with OVCAR-4, in the assay with PC-3, in the assay with SF-268, with SF-295, in the assay with SF-539 and with SK-OV-3 was > 100 µM (inactive) each time. The GI50 in the assay with SR and in the assay with UACC-257 was > 100 µM (inactive) each time.
With `CCN(CC)CCCC(C)Nc1ccnc2cc(Cl)ccc12` (stereo not given) [CHLOROQUINE PHOSPHATE], the GI50 is 11.7 µM (inactive) with 786-0; 39.5 µM (inactive) with A549; > 85.1 µM (inactive) in the assay with ACHN; 7.94 µM (inactive) in the assay with DU-145; 12 µM (inactive) in the assay with HCT-116; 24.9 µM with HCT-15. Also, the GI50 in the assay with HOP-92 was 15.7 µM (inactive); with HT-29, 17.5 µM (inactive); in the assay with K562 it was 12.4 µM (inactive); in the assay on MDA-MB-231, 15.8 µM (inactive); in the assay with NCI-H522, 25.8 µM (inactive); in the assay on NCI/ADR-RES, 42.1 µM (inactive). The GI50 was 51.3 µM (inactive) with OVCAR-4; 19 µM (inactive) with PC-3; 60.7 µM (inactive) in the assay on SF-268; 21 µM (inactive) in the assay with SF-295; 16.6 µM (inactive) with SF-539; > 76.7 µM (inactive) in the assay with SK-OV-3. For the same compound, the values for the GI50 in the assay with SR and with UACC-257 were 13.6 µM (inactive) and 23.1 µM (inactive), respectively.
With `CC(=O)[C@@]1(O)CC[C@H]2[C@@H]3C[C@H](C)C4=CC(=O)C=C[C@]4(C)[C@@]3(F)[C@@H](O)C[C@@]21C` [FLUOROMETHOLONE], the GI50 with 786-0 is > 100 µM (inactive); with A549, > 100 µM (inactive); in the assay on ACHN it was > 100 µM (inactive); in the assay on DU-145, > 51.4 µM (inactive); in the assay with HCT-116, > 100 µM (inactive); with HCT-15, more than 100 µM. Further, the GI50 with HOP-92 was > 100 µM (inactive); with HT-29 it was > 100 µM (inactive); in the assay on K562, > 100 µM (inactive); with MDA-MB-231, > 91 µM (inactive); in the assay with NCI-H522 it was > 93.3 µM (inactive); with NCI/ADR-RES, > 100 µM (inactive). The GI50 with OVCAR-4 was > 100 µM (inactive); in the assay with PC-3 it was > 59.3 µM (inactive); in the assay with SF-268 it was > 95.1 µM (inactive); in the assay with SF-295, > 100 µM (inactive); with SF-539, > 87.3 µM (inactive); with SK-OV-3 it was > 100 µM (inactive). Besides, the GI50 in the assay with SR and in the assay with UACC-257 was > 100 µM (inactive) each time.
